Measured values as given in paper PMC7566913, “Dual Gene Delivery Reagents From Antiproliferative Alkylphospholipids for Combined Antitumor Therapy” (Frontiers in Chemistry, 2020).

What was measured:
Type in all cases: cell-based, human
[1] = test system: H292 cells; assay: Antiproliferative effect of pUNO1-hTRAIL vs pCMV-Gluc lipoplexes, MTT, H292; conditions: N/P 3, 1 eq. DOPE
Description: Cells were treated with lipoplexes prepared from pro-APLs ME12, PE12, and EE12, with increasing dose of pDNA (0.1–0.4 μg per well). The gold standard gene delivery reagent Lipofectamine® 2000 was assayed in parallel for comparison purpose. In order to distinguish the intrinsic cytotoxic effect of the in situ generated APLs from that resulting from TRAIL expression, pCMV-Gluc was assayed in parallel to pUNO1-hTRAIL. Using pCMV-Gluc, the observed cytotoxicity was assumed to result only from the APL antiproliferative activity, whereas results obtained with pUNO1-hTRAIL are a combination of TRAIL activity and APL antiproliferative effect. […] Though the temptation is to take it as an indicator that functional TRAIL was produced, the difference found was not always statistically significant. The activity profile of the three pro-APLs varied according to the cell line. […]
Figure 8 Antiproliferative effect of lipoplexes prepared from ME12 (A), PE12 (B), EE12 (C), and the two DNA plasmids pCMV-Gluc (light bars) and pUNO1-hTRAIL (dark bars), on the three cell lines. […] Lipofectamine®-based lipoplexes (0.1 μg plasmid/well) were prepared according to the optimized experimental conditions determined following the supplier's instructions. Cell viability was measured by the MTT assay. Basal mitochondrial activity measured in untreated cells is set at 100%. […]

[2] = test system: H292 cells; assay: Cytotoxicity, MTT assay, H292; conditions: Homo sapiens, NCI-H292, H292, 24 h at 37°C
Description: (§1) The cells were exposed for a 24-h period to increasing concentration of the pro-APLs, ranging from 500 nM to 1 mM, and cell viability was assessed using the MTT colorimetric assay (Mosmann, [1983]). For the three cell lines, viability decreased in a dose-dependent manner in response to APLs and pro-APLs (Supplementary Figures 2–4). Using the best-fit regression curve method, the IC50 value (concentration that provokes 50% inhibition of the cell growth) was calculated for each compound (Table 4). The three cell lines responded to the compounds with varying sensitivities. […] This is attributed to enzyme-mediated hydrolysis of the pro-APL compounds in the complemented culture medium or in the intracellular compartment, competing with pure pH-controlled chemical hydrolysis. According to its structure, a pro-APL may or not be a substrate for specific lipases and, thus, may or not be hydrolyzed into the parent cytotoxic compound. […]
(§2) At confluency, cells were released […]
(§3) Cells were seeded into 96-well plates (Becton-Dickinson) at the required density (vide supra) in 100 µL of serum containing culture medium. […]
(§4) Mitochondrial activity measurements (MTT assay) was used to assess cytotoxicity of the compounds.
(§5) Lipid samples were prepared from a lipid film (3.6 µmol of compound evaporated from an ethanolic solution) hydrated with aqueous glucose 5 % and vigorously vortexed for 20 s before serial dilution in aqueous glucose 5 %. For addition of lipid samples to cell culture, part of the culture medium in the culture plates prepared the day before (25 µL) was removed and replaced by lipid samples (25 µL). Negative control was obtained by adding glucose 5 % to the cells instead of lipoplexes.
(§6) After a 24-h incubation period at 37 °C, culture supernatant was removed, cells were carefully washed with PBS and MTT (100 µL, 0.5 mg/mL) in complete culture medium was added. After a 1-h incubation period at 37 °C, the MTT sol ution was removed and DMSO (100 µL) was added to lyse cells and dissolve reduced MTT. Intensity of MTT reduction was then evaluated by measuring absorbance at 492 nm. Viability of cells treated with lipids or lipoplexes was expressed as the percentage of the absorbance measured in untreated cells. Value for each sample is the mean of triplicate determinations (± SD). IC50 values were determined within the 95 % confidence interval using nonlinear regression analysis with the GraphPad Prism software (GraphPad Software, San […]
(§7) All data are representative of a triplicate determination and are presented as the mean ± SD.
(§8) Statistical significance between treatments was assessed by one-way analysis of variance (ANOVA) followed by the Dunnett multiple comparison test, using the Kaleidagraph 4.5 software (Synergy Software, Reading, PA, USA). Data were considered as statistically significant for p value less than

[3] = test system: A549 cells; assay: Gene transfer efficiency, pCMV-Gluc luciferase reporter gene assay; conditions: A549, N/P 3, 1 eq. DOPE
Description: The efficacy of the pro-APLs to mediate intracellular delivery of a plasmid DNA was examined in A549 human lung epithelial carcinoma cells using the pCMV-Gluc reporter gene encoding the luciferase of Gaussia princeps. This luciferase is secreted by cells and transgene expression can be conveniently assessed by standard bioluminescence measurements on aliquots of the cell culture supernatant, without need for prior cell lysis. Lipoplexes were formulated in glucose 5% at N/P ratios of 1, 3, and 5, with increasing amounts of DOPE as a helper lipid. They were deposited onto cells in the presence of 10% serum and luciferase activity was measured after 24 h (Figure 3). […] The influence of the nature of the pendant hydrophobic arm was also examined.
To investigate the effect of serum on the gene delivery properties of the APL prodrugs, cells were treated with lipoplexes in the presence of an increasing concentration of serum (Figure 5). Two DNA doses were considered.
Figure 5 Transfection efficiency of pro-APLs ME12 (A), PE12 (B), and EE12 (C) as a function of serum content. Pro-APL/DNA complexes were prepared at N/P 3, with 1 molar eq. of DOPE. A549 cells (6,000 cells/well) were seeded into 96-well plates in 100 μL of culture medium containing 10% serum. Twenty-four hours later, cell supernatant was replaced with culture medium complemented with increasing amounts of serum (from 10 to 75%) just before adding the lipoplexes (0.2 and 0.4 μg of DNA per well; light and deep purple bars, resp.). Control (light blue bar) refers to basal bioluminescence measured in untreated cells. […] Statistical significance vs. control. ***p < 0.001, **p < 0.01, *p < 0.05.

[4] = test system: A549 cells; assay: Cytotoxicity, MTT assay, A549; conditions: Homo sapiens, A549, 24 h at 37°C
Description: as §1, §2, §3, §4, §5, §6, §7, §8

## CCCCCCCCCCCCCCCCCCOP(=O)(OCOC(=O)CCCCCCCCCCC)OC1CC[N+](C)(C)CC1.[Cl-] (centres unmarked) [PE12, 4-((((Dodecanoyloxy)methoxy)(octadecyloxy)phosphoryl)oxy)-1,1-dimethylpiperidin-1-ium chloride]
[1]
  Cell death specifically induced by TRAIL: ca. 45%
[2]
  IC50: 168 ± 7 µM
[3]; DNA dose 0.2 μg/well
  Serum content up to which significant transgene expression was mediated: up to 50 % serum
[3]; DNA dose 0.4 μg/well
  Serum content up to which transfection activity extended: up to 75 % serum
[4]
  IC50: 139 ± 4 µM
